# In patent publication US20250230193A1, “CYCLIC COMPOUND HAVING SELECTIVE KRAS INHIBITORY EFFECT ON HRAS AND NRAS” (CHUGAI SEIYAKU KABUSHIKI KAISHA, priority 2022, published 2025):
# Where a SMILES comes first, the peptide text is derived from it. Bridges are numbered along the chain shown (N, C = ends). [ ]: non-standard residue; d: D form. The star is where a group is joined. hPhe(3-Cl-4-CF3) = N[C@@H](CCc1ccc(C(F)(F)F)c(Cl)c1)C(=O)O; NPrPhe(4-CF3) = CCCN[C@@H](Cc1ccc(C(F)(F)F)cc1)C(=O)O; NMeGly(cPent) = CN[C@H](C(=O)O)C1CCCC1; NMeL = CN[C@@H](CC(C)C)C(=O)O; Morpholide = C1CN(*)CCO1; Ac4c = NC1(C(=O)O)CCC1; Sar = CNCC(=O)O
# Legend:
# [1] = molecular target: GDP-bound HRAS wild-type protein (Homo sapiens, UniProt P01112); experiment: Binding to HRAS by surface plasmon resonance (SPR), Single Cycle Kinetics; conditions: for HRAS/KRAS (ratio of KD value with respect to HRAS to KD value with respect to KRAS) / HRAS/KRAS (ratio of KD value for HRAS to KD value for KRAS): GDP-bound HRAS wild-type vs GDP-bound KRAS wild-type
# [2] = molecular target: GDP-bound NRAS wild-type protein (Homo sapiens, UniProt P01111); experiment: Binding to NRAS by surface plasmon resonance (SPR), Single Cycle Kinetics; conditions: for NRAS/KRAS (ratio of KD value with respect to NRAS to KD value with respect to KRAS) / NRAS/KRAS (ratio of KD value for NRAS to KD value for KRAS): GDP-bound NRAS wild-type vs GDP-bound KRAS wild-type
# Sequence of GDP-bound NRAS wild-type protein (P01111 whole entry): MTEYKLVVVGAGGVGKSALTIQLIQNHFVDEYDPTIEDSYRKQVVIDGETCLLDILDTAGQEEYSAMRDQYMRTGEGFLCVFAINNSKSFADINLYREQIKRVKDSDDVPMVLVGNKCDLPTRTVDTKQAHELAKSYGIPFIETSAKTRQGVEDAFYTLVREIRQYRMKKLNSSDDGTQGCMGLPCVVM
# Sequence of GDP-bound HRAS wild-type protein (P01112 whole entry): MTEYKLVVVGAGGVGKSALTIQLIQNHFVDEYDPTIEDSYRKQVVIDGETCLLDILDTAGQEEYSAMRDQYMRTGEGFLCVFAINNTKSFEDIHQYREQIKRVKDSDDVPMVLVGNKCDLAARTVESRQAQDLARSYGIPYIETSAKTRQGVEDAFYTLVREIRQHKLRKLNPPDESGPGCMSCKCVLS
smiles,measurement,setting,value
CCO[C@@H]1C[C@H]2C(=O)NC3(CC(C)(C)C3)C(=O)N(C)[C@@H](C3CCCC3)C(=O)N(C)[C@H](C(=O)N(C)C)CC(=O)N(C)[C@@H](CC)C(=O)N[C@@H]([C@@H](C)CC)C(=O)N(C)CC(=O)N(C)[C@H]3C/C=C\CCN(C3=O)[C@@H](Cc3ccc(Cl)cc3F)C(=O)N(C)CC(=O)N[C@@H](CCc3cc(F)c(C(F)(F)F)c(F)c3)C(=O)N2C1 [PP2048],HRAS/KRAS (ratio of KD value with respect to HRAS to KD value with respect to KRAS),[1]; SPR,B (a compound having 3 or more and less than 10 is denoted as B)
same,NRAS/KRAS (ratio of KD value with respect to NRAS to KD value with respect to KRAS),[2]; SPR,A (a compound having 10 or more and less than 20 is denoted as A)
CCO[C@@H]1C[C@H]2C(=O)NC3(CC(C)(C)C3)C(=O)N(C)[C@@H](C(CC)CC)C(=O)N(C)[C@H](C(=O)N(C)C)CC(=O)N(C)[C@@H](CC3CC3)C(=O)N[C@@H]([C@@H](C)CC)C(=O)N(C)CC(=O)N(C)[C@H]3C/C=C\CCN(C3=O)[C@@H](Cc3ccc(C)cc3)C(=O)N(C)CC(=O)N[C@@H](CCc3cc(F)c(C(F)(F)F)c(F)c3)C(=O)N2C1 [PP2137],HRAS/KRAS (ratio of KD value with respect to HRAS to KD value with respect to KRAS),[1]; SPR,A (a compound having 10 or more and less than 20 is denoted as A)
same,NRAS/KRAS (ratio of KD value with respect to NRAS to KD value with respect to KRAS),[2]; SPR,A (a compound having 10 or more and less than 20 is denoted as A)
CCC[C@H]1C(=O)N[C@@H](C(CC)CC)C(=O)N(C)CC(=O)N(C)[C@H]2C/C=C\CCN(C2=O)[C@@H](Cc2ccc(C)cc2)C(=O)N(C)CC(=O)N[C@@H](CCc2ccc(C(F)(F)F)c(Cl)c2)C(=O)N2C[C@H](OCC)C[C@H]2C(=O)NC2(CC(C)(C)C2)C(=O)N(C)[C@@H](CC(C)C)C(=O)N(C)[C@H](C(=O)N(C)C)CC(=O)N1C [PP2202],HRAS/KRAS (ratio of KD value with respect to HRAS to KD value with respect to KRAS),[1]; SPR,A (a compound having 10 or more and less than 20 is denoted as A)
same,NRAS/KRAS (ratio of KD value with respect to NRAS to KD value with respect to KRAS),[2]; SPR,A (a compound having 10 or more and less than 20 is denoted as A)
CCCN1C(=O)CN(C)C(=O)CN(C)C(=O)[C@H]([C@@H](C)CC)NC(=O)[C@H](CC(C)C)N(C)C(=O)C[C@@H](C(=O)N2CCOCC2)NC(=O)[C@H](C2CCCC2)N(C)C(=O)C2(CCC2)NC(=O)[C@@H]2CCCN2C(=O)[C@H](CCc2ccc(C(F)(F)F)c(Cl)c2)NC(=O)CN(C)C(=O)[C@@H]1Cc1ccc(C(F)(F)F)cc1 [PP0320] ([NMeL]I[Sar][Sar][NPrPhe(4-CF3)][Sar][hPhe(3-Cl-4-CF3)]P[Ac4c][NMeGly(cPent)]D-Morpholide; lactam N-11),HRAS/KRAS (ratio of KD for GDP-bound HRAS wild-type to KD for KRAS),"[1]; KD ratio HRAS/KRAS, SPR",B (a compound having 3 or more and less than 10 is denoted as B)
same,NRAS/KRAS (ratio of KD for GDP-bound NRAS wild-type to KD for KRAS),"[2]; KD ratio NRAS/KRAS, SPR",B (a compound having 3 or more and less than 10 is denoted as B)
CC[C@H](C)[C@@H]1NC(=O)[C@H](CC(F)(F)F)N(C)C(=O)C[C@@H](C(=O)N(C)C)N(C)C(=O)[C@H](C2CCCC2)N(C)C(=O)C2(CC(C)(C)C2)NC(=O)[C@@H]2CCCN2C(=O)[C@H](CCc2cc(F)c(C(F)(F)F)c(F)c2)NC(=O)CN(C)C(=O)[C@H](Cc2ccc(C(F)(F)F)cc2)N2CC/C=C\C[C@@H](C2=O)N(C)C(=O)CN(C)C1=O [PP1722],HRAS/KRAS (ratio of KD value for HRAS to KD value for KRAS),[1]; SPR,A (a compound having 10 or more and less than 20 is denoted as A)
same,NRAS/KRAS (ratio of KD value for NRAS to KD value for KRAS),[2]; SPR,AA (a compound having 20 or more is denoted as AA)
CCC(CC)[C@H]1C(=O)N(C)[C@H](C(=O)N(C)C)CC(=O)N(C)[C@@H](COC)C(=O)N[C@@H]([C@@H](C)CC)C(=O)N(C)CC(=O)N(C)[C@H]2C/C=C\CCN(C2=O)[C@@H](Cc2ccc(C)cc2)C(=O)N(C)CC(=O)N[C@@H](CCc2ccc(C(F)(F)F)c(OC)c2)C(=O)N2CCCCC[C@H]2C(=O)NC2(CC(C)(C)C2)C(=O)N1C [PP2970],HRAS/KRAS (ratio of KD value with respect to GDP-bound HRAS wild-type protein to KD value with respect to KRAS),"[1]; KD ratio HRAS/KRAS, class symbols",A (a compound having 10 or more and less than 20 is denoted as A)
same,NRAS/KRAS (ratio of KD value with respect to GDP-bound NRAS wild-type protein to KD value with respect to KRAS),"[2]; KD ratio NRAS/KRAS, class symbols",A (a compound having 10 or more and less than 20 is denoted as A)
CCCOC[C@H]1C(=O)N[C@@H]([C@@H](C)CC)C(=O)N(C)CC(=O)N(C)[C@H]2C/C=C\CCN(C2=O)[C@@H](Cc2ccc(C(F)(F)F)cc2)C(=O)N(C)CC(=O)N[C@@H](CCc2cc(F)c(C(F)(F)F)c(F)c2)C(=O)N2C[C@H](OCC)C[C@H]2C(=O)NC2(CC(F)(F)C2)C(=O)N(C)[C@@H](C2CCCC2)C(=O)N(C)[C@H](C(=O)N(C)CCC)CC(=O)N1C [PP1744],HRAS/KRAS (ratio of KD value for HRAS to KD value for KRAS),[1]; SPR,A (a compound having 10 or more and less than 20 is denoted as A)
same,NRAS/KRAS (ratio of KD value for NRAS to KD value for KRAS),[2]; SPR,A (a compound having 10 or more and less than 20 is denoted as A)
